Test system: 299254-011-R-J1-PDC complex spheroid viability
Test: Anticancer human tumor 299254-011-R-J1-PDC patient-derived melanoma cell line growth inhibition [POLQ]
Conditions: for IC50: curve of first compound; for viability, T/C: stronger effect = lower value
Procedure: Multicellular complex tumor spheroid response to Polymerase (POL) inhibitors (novobiocin, ART-558, RP6685) in combination with a variety of drugs and investigational agents in selected tumor cell lines
The POL inhibitors (novobiocin, ART-558, and RP6685) were evaluated both individually and in combination with standard of care and investigational anticancer small molecules within a complex spheroid model of solid tumors. . Complex spheroids include a stromal component modeled by human endothelial cells (HUVEC) and fibroblasts modeled by human mesenchymal stem cells (MSCs). The concentration ranges selected for each drug and investigational agent were based upon clinically achievable concentrations if the clinical Cmax of the agent was known.
Compounds. The drugs and investigational agents: novobiocin (NSC847541), ART-558 (NSC835418), RP-6685 (NSC848927), peposertib (NSC802822), ceralasertib (NSC780249), elimusertib (NSC800525), camonsertib (NSC841442), AZD-1390 (NSC803789), olaparib (NSC753686), talazoparib (NSC767125), rucaparib (NSC756644), sotorasib (NSC818433), MRTX-1133 (NSC836407), SN-38 (NSC673596), topotecan (NSC609699), epotoside (NSC141540), doxorubicin (NSC123127), gemcitabine (NSC613327), 5-fluorouracil (NSC19893), paclitaxel (NSC125973), vemurafenib (NSC761431), MSA-2 (NSC828583), SN-011 (NSC837082), adavosertib (NSC754352), prexasertib (NSC758257), carboplatin (NSC241240) and oxaliplatin (NSC266046), were obtained from the National Cancer Institute (NCI) Developmental Therapeutics Program Chemical Repository (21). The FDA-approved anticancer drug set is available from the Developmental Therapeutics Program at https://dtp.cancer.gov/organization/dscb/obtaining/. […] The stock solutions were prepared in dimethyl sulfoxide (DMSO, Sigma-Aldrich, St. Louis, MO, cat. D2650), except for the platinum compounds which were prepared in saline (Quality Biological, Gaithersburg, MD, cat. 114-055-101), at 800-fold the tested concentration and stored at -70 degrees C prior to their use. All drugs and investigational agents were tested over a range starting from a high concentration at or near the clinical Cmax and decreasing in half-log increments. If the clinical Cmax for an agent had not been determined, the highest concentration tested was 10 microM, except for SN-38, which was tested at a high concentration of 1 microM.
Cell Culture. All cells were maintained in an incubator at 37 degrees C and 5% CO2 with 95% humidity. The PDC lines were cultured according to standard operating procedures established by the NCI PDMR (https://pdmr.cancer.gov). Table 3 of the manuscript, lists the cell lines along with the number of the three cell types plated to form the mct-spheroids and media for tumor cell growth. After thawing, all PDC lines, except 997537-175-T-J1-PDC and 415267-285-R-J2-PDC, were cultured in Matrigel-coated flasks prepared with a working solution of 1X Ham's F-12 nutrient mix, without supplementation (Thermo Fisher Scientific, cat. 11765054), 100 U/mL penicillin-streptomycin (Thermo Fisher Scientific, cat. 15140122), and 2.5% Matrigel (Corning Inc., Corning, NY, cat. 354248) for the first three passages. The two PDC lines 997537-175-T-J1-PDC and 415267-285-R-J2-PDC were cultured on uncoated flasks. The 857933-349-R-J2-PDC line was cultured in 6C/Colon 1B media containing advanced DMEM/F-12 (Thermo Fisher Scientific, cat. 12634028), 10 mM HEPES (Thermo Fisher Scientific, cat. 15630080), 1X GlutaMAX supplement (Thermo Fisher Scientific, cat. 35050061), 0.1 mg/mL primocin (InvivoGen, San Diego, CA, cat. ant-pm-2), 10% defined fetal bovine serum, heat inactivated (HyClone Laboratories Inc., Logan, UT, cat. SH30070.03HI), 50% L-WRN conditioned media (ATCC, cat. CRL-3276), 1.25 mM N-Acetyl-L-cysteine (Sigma-Aldrich, cat. A9165), 10 mM nicotinamide (Sigma-Aldrich, cat. N0636), 1X B-27 supplement (Thermo Fisher Scientific, cat. 17504044), 1X N-2 supplement (Thermo Fisher Scientific, cat. […]

[1] = second compound 0.0316 µM, first compound 0.0316 µM
[2] = second compound 0.0316 µM, first compound 0.1 µM
[3] = second compound 0.0316 µM, first compound 0.316 µM
[4] = second compound 0.0316 µM, first compound 1 µM
[5] = second compound 0.0316 µM, first compound 3.16 µM
[6] = second compound 0.0316 µM, first compound 10 µM
[7] = second compound 0.1 µM, first compound 0.0316 µM
[8] = second compound 0.1 µM, first compound 0.1 µM
[9] = second compound 0.1 µM, first compound 0.316 µM
[10] = second compound 0.1 µM, first compound 1 µM
[11] = second compound 0.1 µM, first compound 3.16 µM
[12] = second compound 0.1 µM, first compound 10 µM
[13] = second compound 0.316 µM, first compound 0.0316 µM
[14] = second compound 0.316 µM, first compound 0.1 µM
[15] = second compound 0.316 µM, first compound 0.316 µM
[16] = second compound 0.316 µM, first compound 1 µM
[17] = second compound 0.316 µM, first compound 3.16 µM
[18] = second compound 0.316 µM, first compound 10 µM
[19] = second compound 1 µM, first compound 0.0316 µM
[20] = second compound 1 µM, first compound 0.1 µM
[21] = second compound 1 µM, first compound 0.316 µM
[22] = second compound 1 µM, first compound 1 µM
[23] = second compound 1 µM, first compound 3.16 µM
[24] = second compound 1 µM, first compound 10 µM
[25] = second compound 3.16 µM, first compound 0.0316 µM
[26] = second compound 3.16 µM, first compound 0.1 µM
[27] = second compound 3.16 µM, first compound 0.316 µM
[28] = second compound 3.16 µM, first compound 1 µM
[29] = second compound 3.16 µM, first compound 3.16 µM
[30] = second compound 3.16 µM, first compound 10 µM
[31] = second compound 10 µM, first compound 0.0316 µM
[32] = second compound 10 µM, first compound 0.1 µM
[33] = second compound 10 µM, first compound 0.316 µM
[34] = second compound 10 µM, first compound 1 µM
[35] = second compound 10 µM, first compound 3.16 µM
[36] = second compound 10 µM, first compound 10 µM
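Note: spheroids exposed to drugs for one week before measurement.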
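Throughout, for viability, T/C: percent viability relative to DMSO vehicle control taken as 100%.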

CC(C)n1c(=O)n(C)c2cnc3cc(F)c(-c4ccc(OCCCN5CCCCC5)nc4)cc3c21 + COC1C(OC(N)=O)C(O)C(Oc2ccc3c(O)c(NC(=O)c4ccc(O)c(CC=C(C)C)c4)c(=O)oc3c2C)OC1(C)C
IC50 (second compound 0.0316 µM): > 10000 nM | IC50 (second compound 0.1 µM): > 10000 nM | IC50 (second compound 0.316 µM): > 10000 nM | IC50 (second compound 1 µM): > 10000 nM | IC50 (second compound 3.16 µM): > 10000 nM | IC50 (second compound 10 µM): > 10000 nM | viability, T/C [1]: 145% | viability, T/C [2]: 129% | viability, T/C [3]: 109% | viability, T/C [4]: 126% | viability, T/C [5]: 112% | viability, T/C [6]: 111% | viability, T/C [7]: 113% | viability, T/C [8]: 127% | viability, T/C [9]: 128% | viability, T/C [10]: 131% | viability, T/C [11]: 112% | viability, T/C [12]: 91.2% | viability, T/C [13]: 121% | viability, T/C [14]: 147% | viability, T/C [15]: 117% | viability, T/C [16]: 121% | viability, T/C [17]: 114% | viability, T/C [18]: 110% | viability, T/C [19]: 113% | viability, T/C [20]: 111% | viability, T/C [21]: 132% | viability, T/C [22]: 107% | viability, T/C [23]: 112% | viability, T/C [24]: 82.9% | viability, T/C [25]: 112% | viability, T/C [26]: 130% | viability, T/C [27]: 116% | viability, T/C [28]: 118% | viability, T/C [29]: 123% | viability, T/C [30]: 102% | viability, T/C [31]: 126% | viability, T/C [32]: 128% | viability, T/C [33]: 139% | viability, T/C [34]: 128% | viability, T/C [35]: 135% | viability, T/C [36]: 115%

CC1COCCN1c1cc(-c2ccnn2C)c2ccnc(-c3ccn[nH]3)c2n1 (centres undefined) + COC1C(OC(N)=O)C(O)C(Oc2ccc3c(O)c(NC(=O)c4ccc(O)c(CC=C(C)C)c4)c(=O)oc3c2C)OC1(C)C
IC50 (second compound 0.0316 µM): 216 nM | IC50 (second compound 0.1 µM): 232 nM | IC50 (second compound 0.316 µM): 236 nM | IC50 (second compound 1 µM): 242 nM | IC50 (second compound 3.16 µM): 236 nM | IC50 (second compound 10 µM): 295 nM | viability, T/C [1]: 104% | viability, T/C [2]: 71.6% | viability, T/C [3]: 39% | viability, T/C [4]: 28.6% | viability, T/C [5]: 36.5% | viability, T/C [6]: 19.8% | viability, T/C [7]: 106% | viability, T/C [8]: 69.5% | viability, T/C [9]: 43% | viability, T/C [10]: 27% | viability, T/C [11]: 36.9% | viability, T/C [12]: 18.8% | viability, T/C [13]: 88.8% | viability, T/C [14]: 63.6% | viability, T/C [15]: 46.7% | viability, T/C [16]: 28.9% | viability, T/C [17]: 31.3% | viability, T/C [18]: 18.9% | viability, T/C [19]: 92.4% | viability, T/C [20]: 72.2% | viability, T/C [21]: 43.2% | viability, T/C [22]: 26.9% | viability, T/C [23]: 38.4% | viability, T/C [24]: 16.6% | viability, T/C [25]: 94.6% | viability, T/C [26]: 75% | viability, T/C [27]: 42% | viability, T/C [28]: 26.5% | viability, T/C [29]: 35.9% | viability, T/C [30]: 22.7% | viability, T/C [31]: 102% | viability, T/C [32]: 82.1% | viability, T/C [33]: 47.9% | viability, T/C [34]: 30.6% | viability, T/C [35]: 41.7% | viability, T/C [36]: 20%

— PubChem BioAssay AID1963849 (Molecular Pharmacology Branch, DTP, NCI, 2024)
